Measured values: ChEMBL document CHEMBL1909046, “DrugMatrix in vitro pharmacology data”

How the values were obtained:
[1] = molecular target: T1, Alpha-1D adrenergic receptor (Homo sapiens, UniProt P25100); type: cell membranes, HEK293, Membrane; note: in other assays of this panel Not Active means under 50% inhibition at 10 µM
T1 sequence (P25100 whole entry): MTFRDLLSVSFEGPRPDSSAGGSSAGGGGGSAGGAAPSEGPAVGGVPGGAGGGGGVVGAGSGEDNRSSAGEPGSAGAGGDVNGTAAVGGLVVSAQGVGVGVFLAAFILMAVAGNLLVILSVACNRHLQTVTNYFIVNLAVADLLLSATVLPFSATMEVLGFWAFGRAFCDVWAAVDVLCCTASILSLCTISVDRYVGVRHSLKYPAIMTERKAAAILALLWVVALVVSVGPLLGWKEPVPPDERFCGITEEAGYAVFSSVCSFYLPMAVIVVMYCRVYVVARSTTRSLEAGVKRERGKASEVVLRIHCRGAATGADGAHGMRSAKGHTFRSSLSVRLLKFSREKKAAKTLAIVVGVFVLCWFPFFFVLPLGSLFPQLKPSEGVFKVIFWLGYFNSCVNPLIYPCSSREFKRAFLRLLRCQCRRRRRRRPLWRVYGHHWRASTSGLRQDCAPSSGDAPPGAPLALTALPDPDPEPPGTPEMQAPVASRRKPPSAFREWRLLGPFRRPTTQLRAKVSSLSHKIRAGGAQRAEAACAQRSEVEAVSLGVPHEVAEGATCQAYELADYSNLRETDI

[2] = molecular target: T2, Receptor-type tyrosine-protein phosphatase C (Homo sapiens, UniProt P08575); design: species or system Escherichia coli;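 note: inhibition of CD45 enzyme activity measured using DiFMUP as substrate; in other assays of this panel Not Active means under 50% inhibition at 10 µM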
T2 sequence (P08575 whole entry): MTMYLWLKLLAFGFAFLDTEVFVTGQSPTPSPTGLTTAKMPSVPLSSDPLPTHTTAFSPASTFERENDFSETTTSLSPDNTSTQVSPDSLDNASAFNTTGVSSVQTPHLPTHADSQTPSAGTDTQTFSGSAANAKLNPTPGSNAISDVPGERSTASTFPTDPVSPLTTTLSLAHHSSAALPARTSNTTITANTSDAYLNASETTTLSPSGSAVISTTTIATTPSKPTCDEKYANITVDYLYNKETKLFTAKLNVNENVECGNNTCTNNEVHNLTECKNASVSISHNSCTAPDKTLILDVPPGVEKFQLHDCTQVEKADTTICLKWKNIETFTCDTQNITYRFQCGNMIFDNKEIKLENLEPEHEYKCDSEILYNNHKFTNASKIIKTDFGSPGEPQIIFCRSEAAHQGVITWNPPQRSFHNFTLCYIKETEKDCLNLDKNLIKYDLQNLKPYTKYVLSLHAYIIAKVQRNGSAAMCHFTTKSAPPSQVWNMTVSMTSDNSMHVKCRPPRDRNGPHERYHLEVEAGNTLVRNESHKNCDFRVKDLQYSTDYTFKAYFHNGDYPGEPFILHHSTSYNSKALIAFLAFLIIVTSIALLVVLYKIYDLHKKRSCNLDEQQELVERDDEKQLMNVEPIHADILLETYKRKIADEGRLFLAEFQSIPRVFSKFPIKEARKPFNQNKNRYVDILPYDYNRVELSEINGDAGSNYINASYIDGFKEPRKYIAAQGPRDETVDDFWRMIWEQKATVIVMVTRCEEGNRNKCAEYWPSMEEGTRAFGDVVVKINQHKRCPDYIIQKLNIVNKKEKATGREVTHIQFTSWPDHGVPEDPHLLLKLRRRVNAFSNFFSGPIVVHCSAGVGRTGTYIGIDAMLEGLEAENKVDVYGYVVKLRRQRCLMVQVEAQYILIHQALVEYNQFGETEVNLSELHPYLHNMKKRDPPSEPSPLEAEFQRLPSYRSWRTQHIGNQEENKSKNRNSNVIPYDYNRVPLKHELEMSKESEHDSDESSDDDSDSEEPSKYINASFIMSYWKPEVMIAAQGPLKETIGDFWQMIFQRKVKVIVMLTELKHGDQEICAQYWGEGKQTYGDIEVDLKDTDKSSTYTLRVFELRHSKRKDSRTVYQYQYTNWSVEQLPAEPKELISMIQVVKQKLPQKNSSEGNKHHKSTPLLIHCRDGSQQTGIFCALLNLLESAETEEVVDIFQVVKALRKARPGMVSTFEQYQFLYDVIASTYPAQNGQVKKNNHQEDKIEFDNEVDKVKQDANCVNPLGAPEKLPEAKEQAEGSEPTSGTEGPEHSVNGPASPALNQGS

[3] = molecular target: Protein phosphatase 3 catalytic subunit alpha (Homo sapiens, UniProt Q08209); design: species or system Escherichia coli;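 note: inhibition of calcineurin (PP2B) enzyme activity, measured with DiFMUP as the substrate; in other assays of this panel Not Active means under 50% inhibition at 10 µM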
[4] = DRUGMATRIX: Potassium Channel [KATP] radioligand binding (ligand: [3H] Glyburide); type: cell membranes, Membrane; conditions: hit-t15; Not Active = under 50% inhibition at 10 µM
[5] = molecular target: T3, C-X-C chemokine receptor type 1 (Homo sapiens, UniProt P25024); note: in other assays of this panel Not Active means under 50% inhibition at 10 µM
T3 sequence (P25024 whole entry): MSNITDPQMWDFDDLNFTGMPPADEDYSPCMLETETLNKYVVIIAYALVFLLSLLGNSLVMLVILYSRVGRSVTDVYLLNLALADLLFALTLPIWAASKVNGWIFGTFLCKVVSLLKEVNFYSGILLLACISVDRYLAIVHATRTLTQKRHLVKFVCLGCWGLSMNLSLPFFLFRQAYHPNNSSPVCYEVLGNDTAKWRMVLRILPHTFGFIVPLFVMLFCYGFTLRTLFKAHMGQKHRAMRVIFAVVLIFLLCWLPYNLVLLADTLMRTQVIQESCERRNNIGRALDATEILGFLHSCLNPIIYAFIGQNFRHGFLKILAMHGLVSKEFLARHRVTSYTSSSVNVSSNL

[6] = molecular target: Matrix metalloproteinase-9 (Homo sapiens, UniProt P14780); assay: biochemical; type: cell-based
[7] = molecular target: T4, C-C chemokine receptor type 4 (Homo sapiens, UniProt P51679); type: cell membranes, Membrane; conditions: chem-1; note: in other assays of this panel Not Active means under 50% inhibition at 10 µM
T4 sequence (P51679 whole entry): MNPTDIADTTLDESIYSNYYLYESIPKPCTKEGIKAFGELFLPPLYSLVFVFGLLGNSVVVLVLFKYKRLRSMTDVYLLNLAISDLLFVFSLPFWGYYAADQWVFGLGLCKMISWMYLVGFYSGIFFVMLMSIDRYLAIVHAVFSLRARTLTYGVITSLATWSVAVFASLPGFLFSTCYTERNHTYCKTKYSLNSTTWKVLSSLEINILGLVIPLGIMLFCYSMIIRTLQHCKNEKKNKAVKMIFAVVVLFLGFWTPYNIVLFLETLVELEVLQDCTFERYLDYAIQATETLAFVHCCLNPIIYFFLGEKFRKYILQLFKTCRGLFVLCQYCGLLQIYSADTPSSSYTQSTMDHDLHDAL

Sequence of Matrix metalloproteinase-9 (P14780 whole entry): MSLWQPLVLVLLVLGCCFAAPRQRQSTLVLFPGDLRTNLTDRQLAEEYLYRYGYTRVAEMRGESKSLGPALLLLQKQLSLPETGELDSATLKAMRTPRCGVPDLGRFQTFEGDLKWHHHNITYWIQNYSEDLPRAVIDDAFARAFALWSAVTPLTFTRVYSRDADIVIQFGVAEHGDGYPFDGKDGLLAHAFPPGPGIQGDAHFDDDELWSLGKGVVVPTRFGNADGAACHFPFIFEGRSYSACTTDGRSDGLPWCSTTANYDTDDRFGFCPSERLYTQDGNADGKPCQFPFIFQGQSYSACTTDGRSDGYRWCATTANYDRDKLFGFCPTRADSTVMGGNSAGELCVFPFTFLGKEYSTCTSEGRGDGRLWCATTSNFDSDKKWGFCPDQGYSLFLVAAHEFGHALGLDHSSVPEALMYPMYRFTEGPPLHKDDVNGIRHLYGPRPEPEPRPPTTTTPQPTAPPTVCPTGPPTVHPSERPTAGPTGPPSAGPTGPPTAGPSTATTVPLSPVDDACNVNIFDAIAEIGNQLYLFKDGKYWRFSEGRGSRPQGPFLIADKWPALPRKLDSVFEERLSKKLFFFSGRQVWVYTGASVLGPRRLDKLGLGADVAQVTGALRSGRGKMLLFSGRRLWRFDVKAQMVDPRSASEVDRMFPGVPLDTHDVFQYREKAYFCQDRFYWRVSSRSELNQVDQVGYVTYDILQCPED

Row | Molecule | IC50 ([1]; hek293) | IC50 [2] | IC50 [3] | IC50 [4] | Ki [4] | IC50 [5] | IC50 [6] | IC50 [7] | IC50 ([1]; read-out: IC50) | Ki ([1]; read-out: Ki) | Ki ([1]; hek293) | Ki [2] | Ki [3] | Ki [5] | Ki [6] | Ki [7] | IC50 ([6]; read-out: IC50)
1 | OCCN1CCN(CCCN2c3ccccc3Sc3ccc(Cl)cc32)CC1 [PERPHENAZINE] | Not Active | Not Active | Not Active | Not Active | Not Active | Not Active | Not Active | Not Active |  |  |  |  |  |  |  |  | 
2 | CC(C)(C)c1ccc(S(=O)(=O)/C=C/C#N)cc1 [BAY-11-7085] | Not Active | Not Active | Not Active | Not Active | Not Active | Not Active | Not Active | Not Active |  |  |  |  |  |  |  |  | 
3 | CCC(=O)O[C@H]1[C@H](O[C@@H]2[C@@H](C)[C@H](O[C@H]3C[C@@](C)(OC)[C@@H](O)[C@H](C)O3)[C@@H](C)C(=O)O[C@H](CC)[C@@](C)(O)[C@H](O)[C@@H](C)C(=O)[C@H](C)C[C@@]2(C)O)O[C@H](C)C[C@@H]1N(C)C [ERYTHROMYCIN PROPIONATE] | Not Active | Not Active | Not Active | Not Active | Not Active | Not Active | Not Active | Not Active |  |  |  |  |  |  |  |  | 
4 | C#C[C@]1(O)CC[C@H]2[C@@H]3CCc4cc(O)ccc4[C@H]3CC[C@@]21C [ETHINYL ESTRADIOL] | Not Active | Not Active | Not Active | Not Active | Not Active | Not Active | Not Active | Not Active |  |  |  |  |  |  |  |  | 
5 | Nc1nc(Cl)nc2c1ncn2[C@H]1C[C@H](O)[C@@H](CO)O1 [CLADRIBINE] | Not Active | Not Active | Not Active | Not Active | Not Active | Not Active | Not Active | Not Active |  |  |  |  |  |  |  |  | 
6 | CC(C)(Sc1cc(C(C)(C)C)c(O)c(C(C)(C)C)c1)Sc1cc(C(C)(C)C)c(O)c(C(C)(C)C)c1 [PROBUCOL] | Not Active | Not Active | Not Active | Not Active | Not Active | Not Active | Not Active | Not Active |  |  |  |  |  |  |  |  | 
7 | CN1C[C@H](C(=O)N[C@]2(C)O[C@@]3(O)[C@@H]4CCCN4C(=O)[C@H](Cc4ccccc4)N3C2=O)C[C@@H]2c3cccc4[nH]cc(c34)C[C@H]21 [DIHYDROERGOTAMINE] |  | Not Active | Not Active | Not Active | Not Active | Not Active | Not Active | Not Active | 29 nM | 14 nM |  |  |  |  |  |  | 
8 | CC(CCc1ccc(O)cc1)NCCc1ccc(O)c(O)c1 (configuration not stated) [DOBUTAMINE] |  | Not Active | Not Active | Not Active | Not Active | Not Active | Not Active | Not Active | 114 nM | 56 nM |  |  |  |  |  |  | 
9 | POLYVINYL ALCOHOL | Not Active | Not Active | Not Active | Not Active | Not Active | Not Active | Not Active | Not Active |  |  | Not Active | Not Active | Not Active | Not Active | Not Active | Not Active | 
10 | CS(=O)(=O)OCCCCOS(C)(=O)=O [BUSULFAN] | Not Active | Not Active | Not Active | Not Active | Not Active | Not Active |  | Not Active |  |  |  |  |  |  |  |  | 5220 nM
11 | CC[C@H]1OC(=O)[C@H](C)[C@@H](O[C@H]2C[C@@](C)(OC)[C@@H](O)[C@H](C)O2)[C@H](C)[C@@H](O[C@@H]2O[C@H](C)C[C@H](N(C)C)[C@H]2O)[C@](C)(O)C[C@@H](C)CN(C)[C@H](C)[C@@H](O)[C@]1(C)O [AZITHROMYCIN] | Not Active | Not Active | Not Active | Not Active | Not Active | Not Active | Not Active | Not Active |  |  |  |  |  |  |  |  | 
12 | CC(=O)OCC(CCn1cnc2cnc(N)nc21)COC(C)=O [FAMCICLOVIR] | Not Active | Not Active | Not Active | Not Active | Not Active | Not Active | Not Active | Not Active |  |  |  |  |  |  |  |  | 
13 | C/C=C\c1ccc(O)c(OC)c1 [ISOEUGENOL] | Not Active | Not Active | Not Active | Not Active | Not Active | Not Active | Not Active | Not Active |  |  |  |  |  |  |  |  | 
14 | O=C(c1ccccc1Cl)N1CCC(Cc2ccccc2)CC1 | Not Active | Not Active | Not Active | Not Active | Not Active | Not Active | Not Active | Not Active |  |  |  |  |  |  |  |  | 
15 | Cc1c(F)c(N2CCNC(C)C2)cc2c1c(=O)c(C(=O)O)cn2C1CC1 (configuration not stated) [GREPAFLOXACIN] | Not Active | Not Active | Not Active | Not Active | Not Active | Not Active | Not Active | Not Active |  |  |  |  |  |  |  |  | 
16 | CC(C(=O)O)c1ccc(-c2ccccc2)c(F)c1 (configuration not stated) [FLURBIPROFEN] | Not Active | Not Active | Not Active | Not Active | Not Active | Not Active | Not Active | Not Active |  |  |  |  |  |  |  |  | 
17 | COC(=O)c1ccccc1O [METHYL SALICYLATE] | Not Active | Not Active | Not Active | Not Active | Not Active | Not Active | Not Active | Not Active |  |  |  |  |  |  |  |  | 
18 | O=C(O)c1cccnc1 [NIACIN] | Not Active | Not Active | Not Active | Not Active | Not Active | Not Active | Not Active | Not Active |  |  |  |  |  |  |  |  | 
